Reference: US12358948B2, “Neurotensinergic agonists and methods of using same preventing or treating pain” (priority 2019, dated 2025)
Values joined by “and” are separate entries in the source; they are usually repeats but may differ in a detail not shown here. Equal values may be shown once. Where a SMILES comes first, the peptide text is derived from it. Bridges are numbered along the chain shown (N, C = ends). [ ]: non-standard residue; d: D form. Ala(cPent) = N[C@@H](CC1CCCC1)C(=O)O; AllylGly = C=CC[C@H](N)C(=O)O

Assays:
hNTS1 receptor = molecular target: T1, hNTS1 receptor (Homo sapiens, UniProt P30989); assay: Competitive radioligand binding assay on the hNTS1 receptor; conditions: IC50 NTS1, displacement of 125I-[Tyr3]-NT, membranes of CHO-K1 cells expressing hNTS1
T1 construct: membranes prepared from them
T1 sequence (P30989 whole entry): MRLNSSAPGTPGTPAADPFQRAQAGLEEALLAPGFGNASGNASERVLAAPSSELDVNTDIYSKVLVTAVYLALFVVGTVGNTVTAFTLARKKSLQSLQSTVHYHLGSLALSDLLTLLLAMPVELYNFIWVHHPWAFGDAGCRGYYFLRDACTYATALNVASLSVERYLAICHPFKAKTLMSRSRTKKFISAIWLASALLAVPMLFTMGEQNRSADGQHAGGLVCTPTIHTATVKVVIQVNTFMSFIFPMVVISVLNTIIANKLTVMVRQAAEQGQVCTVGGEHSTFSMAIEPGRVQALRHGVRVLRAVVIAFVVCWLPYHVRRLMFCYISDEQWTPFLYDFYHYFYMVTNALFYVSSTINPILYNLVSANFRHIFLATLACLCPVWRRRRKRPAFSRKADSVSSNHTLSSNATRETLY
Method in brief: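 IC50 values came from one-site competition curves against ¹²⁵I-[Tyr³]-NT after 60 min at 25 °C (pH 7.5 Tris, 0.2% BSA), with analogues at 10⁻¹¹–10⁻⁴ M and nonspecific binding set by 10⁻⁵ M NT(8-13). hNTS1 used 15 µg CHO-K1 membranes with […] tracer; hNTS2 used 50 µg 1321N1 membranes with […] tracer.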

Sprague-Dawley rats = assay: Formalin test (tonic pain model), intrathecal injection; assay type: in vivo, rat
Experimental: Experiments were performed with adults male Sprague-Dawley rats, weighing 225-300 g (Charles River laboratories, St Constant, Canada). Rats were housed two per cage on Aspen shavings in a quiet room and kept on a 12 h light/dark cycle and allowed ad libitum access to food and water. The experimental procedures in this study were approved by the Animal Care Committee of Université de Sherbrooke and were in accordance with policies and directives of the Canadian Council on Animal Care.
Rats were lightly anesthetized with isoflurane/oxygen (Baxter corporation, Mississauga, ON, Canada; 2 L/min) flow and injected intrathecally at the L5-L6 intervertebral space with concentrations ranging from 10 to 150 μg/kg of compound 34, 30 μg/kg of PD149163 or 61 nmol/kg of compounds 60, 67, 91 and 116 diluted in 0.9% saline or 0.9% saline alone.
Formalin test: The analgesic effect of compound 34 was assessed using the formalin test as a model of persistent pain. Before testing, animals were acclimatized to manipulations and to plexiglass chambers 30 min/day for three consecutive days. On test day, 5 minutes after intrathecal injection of compounds at increasing doses ranging from 30 to 150 μg/kg (FIGS. 7A-B) or 3 to 60 μg/kg (FIGS. 8A-D), the rats received a 50 μl of diluted 1.85% formaldehyde (i.e. 5% formalin; Bioshop, Burlington, Ontario) into the plantar surface of the right hind paw. […] The intraplantar injection of formalin produced the biphasic nociceptive response typical of this tonic pain model (Tjolsen et al., 1992). […] Nociceptive behavior was assessed using a weighted score as described previously (Dubuisson and Dennis 1977; Codere, 1993). […] The weighted average pain intensity score ranging from 0 to 3 was then calculated by multiplying the time spent in each category by the category weight, summing these products, and dividing by the total time in a given time interval. The pain score was thus calculated from the following formula (1T1+2T2+3T3)/180 where T1, T2, and T3 are the durations (in seconds) spent in behavioral categories 1, 2, or 3, respectively, during each 180 second block. The Area Under the Curve (AUC) was calculated during all the duration of the test (0-60 min). […]
Data are expressed as mean±standard errors of the mean (SEM). […] The % MPE for the tail-flick test and the areas under the curve for the formalin test were analyzed using a one-way ANOVA followed by a Dunnett's multiple comparisons test to compare different concentrations of compounds and saline treatment (FIGS. 2B, 4B, 7A-B and 8B-D). […]

[1] = Blood pressure measurements after intravenous injection
Experimental: Mean, systolic and diastolic arterial blood pressure and a heart rate were measured through a catheter (PE 50 filled with heparinized saline) inserted in the right carotid artery and connected to a Micro-Med transducer (model TDX-300, USA) linked to a blood pressure Micro-Med analyzer (model BPA-100c). […] Blood pressure was recorded each second for up to 1000 seconds following intravenous injection. […] Data represents the mean±SEM of 4-5 rats for each condition.

Row | Compound | IC50 (hNTS1 receptor) | time spent in lifting (Sprague-Dawley rats; acute phase, from 60 μg/kg i.t.) | time spent in lifting (Sprague-Dawley rats; inflammatory phase, from 90 μg/kg i.t.) | Hypotension (i.v.) ([1]; 0.01, 0.1, 1 mg/kg i.v.) | ED50, formalin test (Sprague-Dawley rats; AUC of pain score, acute and inflammatory phases combined, i.t.) [nmol/kg] | pain score (Sprague-Dawley rats; all tested doses (from 10 nmol/kg) i.t.) | Hypotension (i.v.) ([1]; 1 mg/kg i.v.)
1 | CC(C)C[C@H](NC(=O)[C@H](Cc1ccc(O)cc1)NC(=O)[C@@H]1CC=CC[C@H](N)C(=O)N[C@@H](CCCCN)C(=O)N[C@@H](CCCCN)C(=O)N1)C(=O)O [compound 34, c[G(All)KKG(All)]YL] (H-[AllylGly]KK[AllylGly]YL-OH; staple 1-4) | 199 µM and 100 µM | significantly decreased | significantly decreased | no significant hypotension | – | – | –
2 | NCCCC[C@@H]1NC(=O)[C@H](CCCCN)NC(=O)[C@@H](N)CC=CC[C@@H](C(=O)N[C@@H](Cc2ccc(O)cc2)C(=O)N[C@@H](CC2CCCC2)C(=O)O)NC1=O [compound 67, c[G(All)KKG(All)]YA(cyclopentyl)] (H-[AllylGly]KK[AllylGly]Y[Ala(cPent)]-OH; staple 1-4) | > 100 µM | – | – | – | 30 | significantly decreased | no significant hypotension
